Columns and labels:
[1] = system: brain and synaptosomal Aβ; experiment: guinea pig brain and synaptosome Aβ by ELISA after icv infusion; format: in vivo; conditions: icv 0.15 mg/kg/day
From the text: Guinea pig (gp) is a natural, non-transgenic model of human APP processing gpAPP is 98% homologous to human APP, contains the human wild-type β-secretase site, and gpAβ is identical to human Aβ. Brain synaptosome preparations are enriched with neuronal synapses which are the sites at which regulated secretion occurs and are an in vivo measure of regulated secretory secretion CTFβ is an APP fragment that results from p-secretase cleavage of APP and reflects in vivo β-secretase activity. […] E64d was icy administered into gp brains (0.15 mg/kg/day) for 7 or 30 days. […] In FIG. 5b, total synaptosomal Aβ is shown.
CA074Me (0.15 mg/kg/day) was icy infused into gp brains with mini pumps. […] An equal reduction of Aβ40 and Aβ42 is consistent with the inhibitor affecting p-secretase activity
At the end of the treatment, the brains were isolated and extracted with guanidine hydrochloride and Aβ40 and Aβ42 levels were determined using ELISA.
Cathepsin B inhibitors were administered directly into the brain by icy infusion with minipumps in time course studies at different doses. Guinea pigs were infused with compounds using Alzet pumps (2.5 μl/hr, with compounds at 1 mg/ml in saline) for 7 and 30 days, and other times. This initial dose of compound was selected because E64d and CA074Me are effective at this dose. Each treatment group consisted of eight to ten guinea pigs, including the vehicle control group.
At the end of each experiment, animals were sacrificed and half the brain was taken for ELISA measurement of Aβ40 and Aβ42 levels. The other half was isolated for synaptosome preparations for ELISA measurement of Aβ40 and Aβ42 content in nerve terminals. Synaptosomes were prepared by homogenization in isotonic sucrose (320 mM), pH 7.4, 1 mM EDTA, 0.25 mM dithiothreitol, and 30 U/MI RNAse inhibitor. The homogenate was centrifuged at 1000×g for 10 minutes. The supernatant was loaded on a Sucrose-Percoll discontinuous gradient and centrifuged at 32,000×g for 5 minutes (80) Enriched synaptosomes were washed in PBS, and centrifuged at 12,000×g for 4 minutes. The supernatant was removed, and the synaptosome containing pellet was resuspended in 50% OptiPrep (Accurate Chemica. Westbury, N.Y.), loaded on an OptiPrep discontinuous flotation gradient (9, 12.5, 25, and 35%) and centrifuged at 10,000×g for 20 minutes. The synaptosomes were obtained at the […]
For quantitative analysis of Aβ peptides, an enzyme-linked immunosorbent assay (ELISA) was used to measure the levels of total Aβ, Aβtotal, Aβ40 and Aβ42 in the brains and synaptosomes of guinea pigs (Biosource International, Camarillo, Calif.) Aβtotal, Aβ40, Aβ42 was extracted from guinea pig brains or from synaptosomes by guanidine hydrochloride and quantified as described by the manufacturer. This assay extracted the total Aβ peptide from the brain (both soluble and aggregated). Tissue samples were homogenized in 5M guanidine buffer (5M guanidine HCl in 50 mM Tris-Cl, pH 8.3; Sigma-Aldrich, St. Louis, Mo.) at 1:10 w/v dilution. Homogenates were agitated at room temperature for 3-4 hours, then stored at −20° C. The day before running the ELISA, the tissue samples were diluted further 1:10 to provide a final guanidine concentration of 0.5M. These diluted homogenates were spun down at 14,000 rpm for 20 minutes at 4° C. and supernatants used for Aβ determination by ELISA (84-86). Brain and synaptosome extracts were assayed as diluted in 0.5M guanidine. In addition, Aβ40 and Aβ42 were assayed using ELISA using 6E10 as the capture antibody and Rb209 and Rb321 as reporter antibodies, respectively, for Aβ40 and Aβ42 (96).

[2] = system: transgenic APPIn mice (London mutant human APP); experiment: Morris water maze test in transgenic APPIn mice; format: in vivo, mouse; conditions: icv 0.015 mg/kg/day, 28 days, p<0.005
Protocol: Transgenic mice expressing human APP containing the London mutation (APPIn) mimic AD function and pathology in that they are cognitively deficient, have brain amyloid plaque and elevated Aβ (8). […] CA074Me or E64d were administered by icy infusion in brains (0.015 mg/kg/day) for 28 days (8 animals per treatment group).
Thus, irreversible cathepsin B inhibitors are efficacious in this AD animal model, causing an 80% improvement in cognitive function and a 50% decrease in amyloid plaque load and brain Aβ. Thus, these tests indicate that Cathepsin B inhibitors are effective at reversing the cognitive deficit caused by AD
The status of memory impairment in the APPIn or APPswe/In mice with and without administration of select compounds was assessed by the Morris water maze test. The water maze test is widely used in mouse AD animal models to evaluate cognitive impairment in such AD models. Water maze tests were conducted as previously described (87-89).
Drug-treated and vehicle-treated mice were tested in the Morris water maze test. Mice were trained in a 1.2 meter open field water maze. The pool was filled to a depth of 30 cm with water and maintained at 25° C. The escape platform (10 cm square) was placed 1 cm below the surface of the water. During the trials, the platform was removed from the pool. […] These trials were not recorded since they were for training purposes only. […]

Structure (SMILES) | reduction of Aβ40 in brain extracts ([1]; 7 days) [%] | reduction of Aβ42 in brain extracts ([1]; 7 days) [%] | reduction of total Aβ in brain extracts ([1]; 7 days) [%] | reduction of total synaptosomal Aβ ([1]; 7 days) [%] | reduction of Aβ40 in brain extracts ([1]; 30 days) [%] | reduction of Aβ42 in brain extracts ([1]; 30 days) [%] | reduction of total Aβ in brain extracts ([1]; 30 days) [%] | reduction of total synaptosomal Aβ ([1]; 30 days) [%] | reduction of Aβ40 in the brain ([1]; duration not stated) | reduction of Aβ42 in the brain ([1]; duration not stated) | average latency period (Morris water maze) vs control [2] | reduction of brain Aβ ([1]; duration not stated) [%]
CCCNC(=O)[C@H]1O[C@@H]1C(=O)N[C@H](C(=O)N1CCC[C@H]1C(=O)OC)[C@@H](C)CC [CA074Me] | 50 | 50 | 50 | 45 | 50 | 50 | 60 | 50 | 50-60% | 50-60% | significantly lower average latency period | 
CCOC(=O)[C@H]1O[C@@H]1C(=O)N[C@@H](CC(C)C)C(=O)NCCC(C)C [E64d] |  |  | 30 | 27 |  |  | 50 | 50 |  |  | significantly lower average latency period | 50

Reference: US20100216875A1, “METHODS OF TREATING ALZHEIMER'S DISEASE” (priority 2006, published 2010)
